Experimental data: patent publication US5474928A, “Arginine deiminase from a Mycoplasma arginini strain” (Nippon Mining Company, Limited, priority 1989, dated 1995)

Legend:
[1] = system: M. arthritidis arginine deiminase; conditions: literature value, Table 1; substrate L-arginine; cited from earlier work
[2] = system: M. hominis arginine deiminase; conditions: literature value, Table 1; substrate L-arginine; cited from earlier work
[3] = target: T1, Mycoplasma arginini (IFO 14476) arginine deiminase (EC 3.5.3.6), present invention, amino acid sequence of FIG. 4 (Mycoplasmopsis arginini, UniProt P23793); test: Km determination by Lineweaver-Burk plot analysis, citrulline formation assay; format: biochemical; conditions: purified enzyme from M. arginini, substrate L-arginine
T1 construct: Arginine deiminase was purified from the M. arginini cell extract; endogenous in cells; host or cells: Mycoplasma arginini IFO 14476 cells (strain from the Institute for Fermentation, Osaka); enzyme purified in house by three chromatography steps
T1 sequence (P23793 whole entry): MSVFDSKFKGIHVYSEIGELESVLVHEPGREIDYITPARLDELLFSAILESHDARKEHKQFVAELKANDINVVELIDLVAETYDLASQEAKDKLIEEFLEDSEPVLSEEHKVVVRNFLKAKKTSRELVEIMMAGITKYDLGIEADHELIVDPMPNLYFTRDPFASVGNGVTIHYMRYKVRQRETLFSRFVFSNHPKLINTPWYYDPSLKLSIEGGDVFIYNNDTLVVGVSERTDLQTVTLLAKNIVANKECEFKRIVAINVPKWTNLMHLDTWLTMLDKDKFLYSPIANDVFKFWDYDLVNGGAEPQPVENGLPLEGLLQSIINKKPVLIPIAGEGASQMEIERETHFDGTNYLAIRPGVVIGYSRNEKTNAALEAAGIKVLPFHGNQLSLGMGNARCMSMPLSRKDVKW
Protocol: The activity of arginine deiminase can be determined by causing it to produce citrulline using the method reported by Fenske et. al. [J. Bacteriol. 126, 501-510 (1976)], and by measuring the amount of the yields using the method given by Archibald [J. Biol. Chem. 156, 121-142 (1944)].
Specifically, 20 μl of arginine deiminase solution is added to 1.0 ml of 10 mM arginine [dissolved in 0.1M phosphate buffer of pH 7.0], then an enzyme reaction is allowed to take place at 37° C. for 10 minutes, and the reaction is terminated by adding 1 ml of mixed acid solution (H2 SO4 :H3 PO4 =1:3). Then, the resultant reactive solution is added with 25 μl of 3% aqueous diacetylmonooxim solution, heated at 100° C. for 20 minutes under a light-shielded condition, left to cool under a room temperature for 30 minutes, and then the amount of the citrulline yield is measured quantitatively by measuring the absorbence at 490 nm. The activity of arginine deiminase producing 1 μmol of citrulline in one minute is defined as 1 unit.
v) Km value and Vmax value
By the Lineweaver-Burk plot analysis Km and Vmax were determined as 0.2 mM and 50 U/mg, respectively.

[4] = system: Strepto- faecalis arginine deiminase; conditions: literature value, Table 1; substrate L-arginine; cited from earlier work

For `N=C(N)NCCC[C@H](N)C(=O)O` [L-arginine], the Km [1] is listed as 4 µM, the Km [2] is listed as 100 to 400 µM and the Km [3] is listed as about 200 µM. For the same compound, the Km [4] was 150 µM.
